Assays:
morningglory = experiment: Test B preemergence/postemergence greenhouse plant response rating 0 to 10; type: in vivo, Ipomoea hederacea; details: 0 to 10 scale
Summary of the method: (§1)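 Both application timings were run together: seeds got compound preemergence, and established seedlings (two to eighteen cm) got it postemergence. Non-phytotoxic solvent carried the chemical. Ratings are visual, versus controls, at twelve to sixteen days.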

sorghum = experiment: as above; type: in vivo, Sorghum bicolor; details: 0 to 10 scale
Summary of the method: as §1

sandbur = experiment: Test G preemergence/postemergence greenhouse plant response rating 0 to 100; type: in vivo, Cenchrus echinatus; details: 0 to 100 scale
Text: Seeds, rhizomes, or plant parts of alfalfa (Medicago ativa), annual bluegrass (Poa annua), bermudagrass (Cynodon dactylon), broadleaf signalgrass (Brachiaria plantaginea), common purslane (Portulaca oleracea), common ragweed (Ambrosia elatior), […] (Paspalum dilatatum), goosegrass (Eleusine indica), guineagrass (Panicum maximum), […] exaltata), johnsongrass (Sorghum halepense), large crabgrass (Digitaria sanguinalis), peanut (Arachis hypoagaea), pitted morningglory (Ipomoea lacunosa), purple nutsedge (Cyperus rotundus), sandbur (Cenchrus echinatus), smooth crabgrass (Digitaria ischaemum) and yellow nutsedge (Cyperus esculentus) were planted into greenhouse pots containing greenhouse planting medium. Each pot contained only one plant species. The test compound was dissolved in a non-phytotoxic solvent and applied preemergence and/or postemergence to the plants. Preemergence applications were made within one day of planting the seeds or plant parts. Postemergence applications were applied when the plants were in the two to four leaf stage (three to twenty cm). Test chemicals were dissolved in a non-phytotoxic solvent and applied preemergence and postemergence to the plants. Untreated control plants and treated plants were placed in the greenhouse and visually evaluated for injury at 13 to 21 days after herbicide application. […] A dash (-) response indicates no test result.

rice = experiment: Test B preemergence/postemergence greenhouse plant response rating 0 to 10; type: in vivo, Oryza sativa; details: 0 to 10 scale
Summary of the method: as §1

wild oat = experiment: as above; type: in vivo, Avena fatua; details: 0 to 10 scale
Summary of the method: as §1

cotton = experiment: as above; type: in vivo, Gossypium hirsutum; details: for Plant response rating, Cotton: 0 to 10 scale
Summary of the method: as §1

cocklebur = experiment: as above; type: in vivo, Xanthium pensylvanicum; details: for Plant response rating, Cocklebur: 0 to 10 scale
Summary of the method: as §1

barnyardgrass = experiment: as above; type: in vivo, Echinochloa crus-galli; details: for Plant response rating, Barnyardgrass: 0 to 10 scale
Summary of the method: as §1

wheat = experiment: as above; type: in vivo, Triticum aestivum; details: 0 to 10 scale
Summary of the method: as §1

| SMILES | Plant response rating, Morningglory (morningglory; POSTEMERGENCE, Rate 50 g/ha) | Plant response rating, Morningglory (morningglory; POSTEMERGENCE, Rate 200 g/ha) | Plant response rating, Morningglory (morningglory; PREEMERGENCE, Rate 50 g/ha) | Plant response rating, Morningglory (morningglory; Rate 200 g/ha, PREEMERGENCE) | Plant response rating, Sorghum (sorghum; POSTEMERGENCE, Rate 50 g/ha) | Plant response rating, Sorghum (sorghum; POSTEMERGENCE, Rate 200 g/ha) | Plant response rating, Sorghum (sorghum; PREEMERGENCE, Rate 50 g/ha) | Plant response rating, Sorghum (sorghum; Rate 200 g/ha, PREEMERGENCE) | Plant response rating, S. Sandbur (sandbur; POSTEMERGENCE, Rate 125 g/ha) | Plant response rating, S. Sandbur (sandbur; POSTEMERGENCE, Rate 250 g/ha) | Plant response rating, S. Sandbur (sandbur; PREEMERGENCE, Rate 125 g/ha) | Plant response rating, S. Sandbur (sandbur; PREEMERGENCE, Rate 250 g/ha) | Plant response rating, Rice (rice; POSTEMERGENCE, Rate 50 g/ha) | Plant response rating, Rice (rice; POSTEMERGENCE, Rate 200 g/ha) | Plant response rating, Rice (rice; PREEMERGENCE, Rate 50 g/ha) | Plant response rating, Rice (rice; Rate 200 g/ha, PREEMERGENCE) | Plant response rating, Wild oat (wild oat; POSTEMERGENCE, Rate 50 g/ha) | Plant response rating, Wild oat (wild oat; POSTEMERGENCE, Rate 200 g/ha) | Plant response rating, Wild oat (wild oat; Rate 200 g/ha, PREEMERGENCE) | Plant response rating (0 to 10 scale), Cotton (cotton; POSTEMERGENCE, Rate 50 g/ha) | other results |
| --- | --- | --- | --- | --- | --- | --- | --- | --- | --- | --- | --- | --- | --- | --- | --- | --- | --- | --- | --- | --- | --- |
| CC(C)Oc1cc(-c2nn3c(c2Cl)CCCC3)c(F)cc1Cl [Compound 21] | 10 | 9 | 2 | 2 | 5 | 6 | 0 | 2 | 0 | 0 | 0 | 0 | 5 | 6 | 0 | 2 | 4 | 6 | 6 | 10 | Plant response rating, Cotton (cotton; POSTEMERGENCE, Rate 200 g/ha): 10; Plant response rating, Cotton (cotton; PREEMERGENCE, Rate 50 g/ha): 2; Plant response rating, Cotton (cotton; Rate 200 g/ha, PREEMERGENCE): 7; Plant response rating (0 to 10 scale), Cocklebur (cocklebur; POSTEMERGENCE, Rate 50 g/ha): 8; Plant response rating, Cocklebur (cocklebur; POSTEMERGENCE, Rate 200 g/ha): 10; Plant response rating, Cocklebur (cocklebur; PREEMERGENCE, Rate 50 g/ha): 2; Plant response rating, Cocklebur (cocklebur; Rate 200 g/ha, PREEMERGENCE): 2; Plant response rating (0 to 10 scale), Barnyardgrass (barnyardgrass; POSTEMERGENCE, Rate 50 g/ha): 6; Plant response rating, Barnyardgrass (barnyardgrass; POSTEMERGENCE, Rate 200 g/ha): 9; Plant response rating, Barnyardgrass (barnyardgrass; PREEMERGENCE, Rate 50 g/ha): 2; Plant response rating, Barnyardgrass (barnyardgrass; Rate 200 g/ha, PREEMERGENCE): 7; Plant response rating, Wheat (wheat; POSTEMERGENCE, Rate 50 g/ha): 3; Plant response rating, Wheat (wheat; POSTEMERGENCE, Rate 200 g/ha): 8; Plant response rating, Wheat (wheat; PREEMERGENCE, Rate 50 g/ha): 3; Plant response rating, Wheat (wheat; Rate 200 g/ha, PREEMERGENCE): 2 |
| Fc1cc(Cl)c(OCc2ccccc2)cc1-c1nn2c(c1Cl)CCCC2 [Compound 22] | 5 | 9 | 2 | 2 | 5 | 5 | 0 | 3 | 0 | 0 | 0 | 0 | 4 | 5 | 0 | 2 | 3 | 3 | 1 | 10 | Plant response rating, Cotton (cotton; POSTEMERGENCE, Rate 200 g/ha): 10; Plant response rating, Cotton (cotton; PREEMERGENCE, Rate 50 g/ha): 2; Plant response rating, Cotton (cotton; Rate 200 g/ha, PREEMERGENCE): 4; Plant response rating (0 to 10 scale), Cocklebur (cocklebur; POSTEMERGENCE, Rate 50 g/ha): 7; Plant response rating, Cocklebur (cocklebur; POSTEMERGENCE, Rate 200 g/ha): 8; Plant response rating, Cocklebur (cocklebur; PREEMERGENCE, Rate 50 g/ha): 0; Plant response rating, Cocklebur (cocklebur; Rate 200 g/ha, PREEMERGENCE): 1; Plant response rating (0 to 10 scale), Barnyardgrass (barnyardgrass; POSTEMERGENCE, Rate 50 g/ha): 3; Plant response rating, Barnyardgrass (barnyardgrass; POSTEMERGENCE, Rate 200 g/ha): 5; Plant response rating, Barnyardgrass (barnyardgrass; PREEMERGENCE, Rate 50 g/ha): 2; Plant response rating, Barnyardgrass (barnyardgrass; Rate 200 g/ha, PREEMERGENCE): 5; Plant response rating, Wheat (wheat; POSTEMERGENCE, Rate 50 g/ha): 3; Plant response rating, Wheat (wheat; POSTEMERGENCE, Rate 200 g/ha): 4; Plant response rating, Wheat (wheat; PREEMERGENCE, Rate 50 g/ha): 0; Plant response rating, Wheat (wheat; Rate 200 g/ha, PREEMERGENCE): 1 |
| CCCOc1cc(-c2nn3c(c2Cl)CCCC3)c(F)cc1Cl [Compound 23] | 8 | 10 | 3 | 8 | 4 | 6 | 0 | 2 | 0 | 0 | 0 | 0 | 4 | 6 | 0 | 2 | 3 | 5 | 6 | 10 | Plant response rating, Cotton (cotton; POSTEMERGENCE, Rate 200 g/ha): 10; Plant response rating, Cotton (cotton; PREEMERGENCE, Rate 50 g/ha): 5; Plant response rating, Cotton (cotton; Rate 200 g/ha, PREEMERGENCE): 5; Plant response rating (0 to 10 scale), Cocklebur (cocklebur; POSTEMERGENCE, Rate 50 g/ha): 8; Plant response rating, Cocklebur (cocklebur; POSTEMERGENCE, Rate 200 g/ha): 10; Plant response rating, Cocklebur (cocklebur; PREEMERGENCE, Rate 50 g/ha): 0; Plant response rating, Cocklebur (cocklebur; Rate 200 g/ha, PREEMERGENCE): 8; Plant response rating (0 to 10 scale), Barnyardgrass (barnyardgrass; POSTEMERGENCE, Rate 50 g/ha): 7; Plant response rating, Barnyardgrass (barnyardgrass; POSTEMERGENCE, Rate 200 g/ha): 9; Plant response rating, Barnyardgrass (barnyardgrass; PREEMERGENCE, Rate 50 g/ha): 4; Plant response rating, Barnyardgrass (barnyardgrass; Rate 200 g/ha, PREEMERGENCE): 6; Plant response rating, Wheat (wheat; POSTEMERGENCE, Rate 50 g/ha): 2; Plant response rating, Wheat (wheat; POSTEMERGENCE, Rate 200 g/ha): 6; Plant response rating, Wheat (wheat; PREEMERGENCE, Rate 50 g/ha): 0; Plant response rating, Wheat (wheat; Rate 200 g/ha, PREEMERGENCE): 2 |
| Fc1cc(Cl)c(OC2CCCC2)cc1-c1nn2c(c1Cl)CCCC2 [Compound 24] | 9 | 8 | 1 | 5 | 5 | 6 | 0 | 1 | 0 | 0 | 40 | 0 | 5 | 5 | 0 | 0 | 3 | 4 | 2 | 10 | Plant response rating, Cotton (cotton; POSTEMERGENCE, Rate 200 g/ha): 10; Plant response rating, Cotton (cotton; PREEMERGENCE, Rate 50 g/ha): 3; Plant response rating, Cotton (cotton; Rate 200 g/ha, PREEMERGENCE): 8; Plant response rating (0 to 10 scale), Cocklebur (cocklebur; POSTEMERGENCE, Rate 50 g/ha): 8; Plant response rating, Cocklebur (cocklebur; POSTEMERGENCE, Rate 200 g/ha): 9; Plant response rating, Cocklebur (cocklebur; PREEMERGENCE, Rate 50 g/ha): 0; Plant response rating, Cocklebur (cocklebur; Rate 200 g/ha, PREEMERGENCE): 1; Plant response rating (0 to 10 scale), Barnyardgrass (barnyardgrass; POSTEMERGENCE, Rate 50 g/ha): 4; Plant response rating, Barnyardgrass (barnyardgrass; POSTEMERGENCE, Rate 200 g/ha): 6; Plant response rating, Barnyardgrass (barnyardgrass; PREEMERGENCE, Rate 50 g/ha): 1; Plant response rating, Barnyardgrass (barnyardgrass; Rate 200 g/ha, PREEMERGENCE): 4; Plant response rating, Wheat (wheat; POSTEMERGENCE, Rate 50 g/ha): 3; Plant response rating, Wheat (wheat; POSTEMERGENCE, Rate 200 g/ha): 4; Plant response rating, Wheat (wheat; PREEMERGENCE, Rate 50 g/ha): 0; Plant response rating, Wheat (wheat; Rate 200 g/ha, PREEMERGENCE): 1 |
| CCS(=O)(=O)Oc1cc(-c2nn3c(c2Cl)CCCC3)c(F)cc1Cl [Compound 25] | 8 | 10 | 1 | 5 | 4 | 5 | 0 | 2 | 0 | 0 | 0 | 0 | 4 | 9 | 0 | 0 | 3 | 4 | 4 | 10 | Plant response rating, Cotton (cotton; POSTEMERGENCE, Rate 200 g/ha): 10; Plant response rating, Cotton (cotton; PREEMERGENCE, Rate 50 g/ha): 4; Plant response rating, Cotton (cotton; Rate 200 g/ha, PREEMERGENCE): 5; Plant response rating (0 to 10 scale), Cocklebur (cocklebur; POSTEMERGENCE, Rate 50 g/ha): 7; Plant response rating, Cocklebur (cocklebur; POSTEMERGENCE, Rate 200 g/ha): 8; Plant response rating, Cocklebur (cocklebur; PREEMERGENCE, Rate 50 g/ha): 0; Plant response rating, Cocklebur (cocklebur; Rate 200 g/ha, PREEMERGENCE): 1; Plant response rating (0 to 10 scale), Barnyardgrass (barnyardgrass; POSTEMERGENCE, Rate 50 g/ha): 3; Plant response rating, Barnyardgrass (barnyardgrass; POSTEMERGENCE, Rate 200 g/ha): 5; Plant response rating, Barnyardgrass (barnyardgrass; PREEMERGENCE, Rate 50 g/ha): 2; Plant response rating, Barnyardgrass (barnyardgrass; Rate 200 g/ha, PREEMERGENCE): 6; Plant response rating, Wheat (wheat; POSTEMERGENCE, Rate 50 g/ha): 3; Plant response rating, Wheat (wheat; POSTEMERGENCE, Rate 200 g/ha): 4; Plant response rating, Wheat (wheat; PREEMERGENCE, Rate 50 g/ha): 0; Plant response rating, Wheat (wheat; Rate 200 g/ha, PREEMERGENCE): 2 |

Source: patent US6358885B1, “Substituted phenylheterocyclic herbicides” (Mississippi State University, priority 1992, dated 2002)
